Values after ≈ are worked out from the molar mass of the structure shown.
What was measured:
[1] = test system: gout attack
Source text: 2. Preparation of Embrocation • Take KOH16.8 g, dissolve in 1 liters of distilled water, and get a concentration of 0.3 mol/L.
They dripped a cotton swab into the embrocation (0.1 mol/L) prepared by themself and embrocated on the attack position.

[2] = test system: blood uric acid; settings: applicant
Method: 2. Preparation of Oral Liquid • Take KOH0.12 g, dissolve in 1 liters of distilled water, and get a concentration of 0.0021 mol/L. Take orally for 50 ml per time and one time per day.
So they began to take oral use tests from January 2016. […] The oral concentration (mol/L) they had tried includes 0.001, 0.0018, 0.0021, 0.0025, 0.003, 0.005 and 0.008 in turn.

[3] = test system: high uric acid and gout; settings: water injection for intravenous drip, high uric acid and gout sufferers
[4] = test system: blood uric acid; settings: applicant; remark: listed apart in the source
Method: On December 3, they took a footbath in 45° C. soaking solution (0.01 mol/L) for an hour, and then went to test at Chaohu Hospital of Anhui Medical University.

[5] = test system: gout
Method: The solution can be also heated to 40-48° C. and then used for footbath. For acute gout attack, if the attack position is easy to soak, such as ankles, toe joints, hands and wrist joints, the solution can also be used to soak such positions. The solution should be embrocated on the attack positions if such positions are not convenient to soak, such as knee joints and elbow joints. […] Drip a cotton swab in the embrocation and embrocate on the attack positions, or drip a dressing in the embrocation and apply on the attack positions. It is very inconvenient to undress when applying topical drug in cold season, then oral drug is an option. […] Have 50 ml of the liquid before meals. For the sufferers of high blood uric acid and acute, intermittent and chronic gout, the embrocation, soak solution and oral liquid can be used separately or concurrently at the same time.

[6] = cited from earlier work; for solubility: 37° C.
[7] = cited from earlier work
[8] = December 3, one footbath in 45° C. soaking solution (0.01 mol/L) for an hour
[9] = baseline, day after eating two chicken livers

[K+].[OH-] [KOH, potassium hydroxide]
time until pain was relieved and foot could touch the ground ([1]; embrocation 0.1 mol/L on first metatarsophalangeal joint, applicant, May 2008): about ten
time until gout symptoms disappeared ([1]; embrocation 0.1 mol/L, 2-3 times per day, applicant): three
effect on swelling and soreness (forerunner of gout), prevention of onset ([1]; embrocation, molar concentration of KOH solution 0.1, 0.2, 0.3 and 0.4, 2009-2013, applicant): all were effective
blood uric acid after oral use ([2]; April 2016, after oral KOH solution 23 times since January 2016): 351 µmol/L
discomfort / taste of oral liquid ([2]; oral liquid 0.001 mol/L-0.005 mol/L): brought no discomfort to the body
anticipated effect of intravenous drip [3]: immediate effect
blood uric acid after footbath [4, 8]: 486 μmol/LL
urine uric acid after footbath [4, 8]: 6.59 mmol/L
blood uric acid after footbath once a day ([4]; December 10, footbath once a day since December 3, soaking solution 0.01 mol/L): 389 µmol/L
drop of blood uric acid ([4]; December 10 versus 495 μmol/L before footbath): 21%
blood uric acid before footbath [4, 9]: 495 µmol/L
urine uric acid before footbath [4, 9]: 6.3 mmol/L
consecutive days of application until gout symptoms completely disappear ([5]; footbath, oral or embrocation): 2 to 3 days
time to relief of symptoms (pain and swelling during gout attack) ([5]; footbath, oral or embrocation): ten
corrosion of the skin ([5]; low concentration KOH): will not corrode the skin
side effects ([5]; low concentration KOH): no side effects

O=c1[nH]c(=O)c2[nH]c(=O)[nH]c2[nH]1 [potassium urate]
solubility compared with uric acid and sodium urate [6]: much higher than uric acid and sodium urate

O=c1[nH]c(=O)c2[nH]c([O-])nc2[nH]1.[Na+] [sodium urate]
solubility [6]: 8.0 mM

O=c1[nH]c(=O)c2[nH]c(=O)[nH]c2[nH]1 [uric acid, 2,6,8-Trihydroxypurine]
solubility [6]: 0.5 mM (≈ 84.1 µg/mL)
dissociation constant (PKa), the 3rd nitrogen dissociation [7]: 10.3
